≈ marks a conversion by molar mass, not a printed value. Where “and” joins values, the source holds several entries; their conditions need not be identical. Equal values may be shown once.
Key:
Experiment in all cases: ≥ marks a high value that may be exact or a test limit, other limits are often not marked, values filed in µg/mL are converted to µM
[1] = test system: Staphylococcus aureus USA 300
[2] = test system: Staphylococcus epidermidis ATCC 12228
[3] = test system: Pseudomonas aeruginosa ATCC 27853
[4] = test system: Escherichia coli ATCC 25922
[5] = test system: Escherichia coli NCTC 12923
[6] = test system: Pseudomonas aeruginosa ATCC BAA-2114
[7] = test system: Acinetobacter baumannii ATCC 17978
[8] = test system: Klebsiella pneumoniae NCTC 13368
[9] = test system: Klebsiella pneumoniae ATCC 13883
[10] = test system: Enterococcus faecalis ATCC 19433
[11] = test system: Salmonella enterica subsp. enterica serovar Choleraesuis ATCC 10708
[12] = test system: Staphylococcus aureus ATCC 33591
[13] = test system: Staphylococcus aureus ATCC 29213
[14] = test system: Staphylococcus aureus ATCC 9144
[15] = test system: Pseudomonas aeruginosa ATCC 9027
[16] = test system: Staphylococcus aureus ATCC 43300
[17] = test system: Pseudomonas aeruginosa PAO1
[18] = test system: Pseudomonas syringae pv. tomato DC3000
[19] = test system: Clavibacter michiganensis subsp. michiganensis DSM 46294
[20] = test system: Pseudomonas syringae pv. syringae DSM 10604
[21] = test system: Xanthomonas vesicatoria DSM 50861
Botrytis cinerea = test system: Botrytis cinerea
[22] = test system: Pectobacterium carotovorum subsp. carotovorum DSM 30168
[23] = test system: Pseudomonas corrugata DSM 7228
Alternaria alternata = test system: Alternaria alternata
Cladosporium herbarum = test system: Cladosporium herbarum
[24] = test system: Staphylococcus aureus 90857
[25] = test system: Pseudomonas aeruginosa ATCC 10145
[26] = test system: Pseudomonas aeruginosa LMG 6395
[27] = test system: Salmonella enterica subsp. enterica serovar Enteritidis ATCC 13076
Fusarium oxysporum LD21 = test system: Fusarium oxysporum LD21
[28] = test system: Candida albicans ATCC 64550
[29] = test system: Campylobacter jejuni ATCC 33291
[30] = test system: Escherichia coli LMG 15862
[31] = test system: Streptococcus agalactiae ATCC 13813
[32] = test system: Staphylococcus aureus ATCC 25923
[33] = test system: Streptococcus pneumoniae ATCC 700677
[34] = test system: Acinetobacter baumannii LMG 01041
[35] = test system: Escherichia coli CGSC 5167
[36] = test system: Klebsiella pneumoniae ATCC 700603
[37] = test system: Shewanella putrefaciens ATCC 49138
[38] = test system: Candida albicans ATCC 10231
[39] = test system: Staphylococcus epidermidis ATCC 29887
[40] = test system: Klebsiella pneumoniae LMG 20218
[41] = test system: Streptococcus pneumoniae ATCC 33400
[42] = test system: Listeria monocytogenes ATCC 19115
[43] = test system: Klebsiella aerogenes LMG 02094
[44] = test system: Enterococcus faecalis JH-2-2
[45] = test system: Enterococcus faecium ATCC 51559
[46] = test system: Enterococcus faecium ATCC 35667
[47] = test system: Bacillus subtilis ATCC 9372
[48] = test system: Burkholderia thailandensis
[49] = test system: Bacillus anthracis Sterne 34F2

SMILES: CC[C@H](C)[C@H](NC(=O)[C@H](C)NC(=O)[C@H](CCCCN)NC(=O)[C@@H]1CCCN1C(=O)[C@@H](NC(=O)[C@H](CC(C)C)NC(=O)[C@H](CCCCN)NC(=O)[C@H](Cc1ccccc1)NC(=O)[C@H](CC(C)C)NC(=O)[C@@H](N)Cc1ccccc1)[C@@H](C)CC)C(=O)N[C@@H](CCCCN)C(=O)N[C@@H](CCCCN)C(=O)N[C@@H](CC(C)C)C(=O)N[C@H](C(=O)N[C@@H](CO)C(=O)N[C@@H](CCCCN)C(=O)N[C@@H](Cc1ccccc1)C(=O)N[C@@H](CCCCN)C(=O)O)[C@@H](C)CC [FLFKLIPKAIKKLISKFK]
- MIC [1]: 3.7 µM (≈ 8 µg/mL)
- MIC [2]: 5 µM (≈ 10.8 µg/mL)
- MIC [3]: 35 µM (≈ 75.7 µg/mL)
- MIC [4]: 7.5 µM (≈ 16.2 µg/mL)
- MIC [5]: 1.85 µM (≈ 4 µg/mL)
- MIC [6]: ≥ 35 µM
- MIC [7]: 1.85 µM (≈ 4 µg/mL)
- MIC [8]: 7.4 µM (≈ 16 µg/mL)
- MIC [9]: 5 µM (≈ 10.8 µg/mL)
- MIC [10]: 5 µM (≈ 10.8 µg/mL)
- MIC [11]: 7.5 µM (≈ 16.2 µg/mL)
- MIC [12]: 5 µM and 3 µM
- MIC [13]: 5 µM and 3 µM
- MIC [14]: 1.85 µM (≈ 4 µg/mL)
- MIC [15]: 5 µM (≈ 10.8 µg/mL)
- MIC [16]: 5 µM (≈ 10.8 µg/mL)
- MIC [17]: 14.8 µM (≈ 32 µg/mL)

SMILES: CC[C@H](C)[C@H](NC(=O)[C@H](Cc1ccccc1)NC(=O)[C@H](CCCN=C(N)N)NC(=O)[C@H](CCCCN)NC(=O)[C@H](CC(C)C)NC(=O)[C@H](Cc1ccccc1)NC(=O)[C@H](CCCCN)NC(=O)[C@@H](NC(=O)[C@H](CC(C)C)NC(=O)[C@@H](N)CC(C)C)[C@@H](C)CC)C(=O)N[C@@H](CCCCN)C(=O)N[C@@H](Cc1cnc[nH]1)C(N)=O [LLIKFLKRFIKH]
- MIC [18]: 3.21 µM (≈ 5 µg/mL)
- MIC [19]: 3.21 µM (≈ 5 µg/mL)
- MIC [20]: 6.43 µM (≈ 9.99 µg/mL)
- MIC [21]: 3.21 µM (≈ 5 µg/mL)
- MIC (Botrytis cinerea): ≥ 64.3 µM
- MIC [22]: 25.7 µM (≈ 40 µg/mL)
- MIC [23]: 6.43 µM (≈ 9.99 µg/mL)
- MIC (Alternaria alternata): ≥ 64.3 µM
- MIC (Cladosporium herbarum): 12.9 µM (≈ 20 µg/mL)

SMILES: CC[C@H](C)[C@H](NC(=O)[C@H](CCCCN)NC(=O)[C@H](CCCCN)NC(=O)[C@H](CC(C)C)NC(=O)[C@H](Cc1ccccc1)NC(=O)[C@H](CCCN=C(N)N)NC(=O)[C@@H](N)CC(C)C)C(=O)N[C@@H](CC(C)C)C(=O)N[C@@H](CCCCN)C(=O)N[C@@H](CCCCN)C(=O)N[C@@H](CC(C)C)C(=O)N[C@@H](Cc1ccccc1)C(N)=O [LRFLKKILKKLF]
- MIC [18]: 0.646 µM (≈ 0.999 µg/mL)
- MIC [19]: 0.646 µM (≈ 0.999 µg/mL)
- MIC [20]: 1.62 µM (≈ 2.5 µg/mL)
- MIC [21]: 1.62 µM (≈ 2.5 µg/mL)
- MIC [22]: 1.62 µM (≈ 2.5 µg/mL)
- MIC [24]: 1.5 µM (≈ 2.32 µg/mL)
- MIC [23]: 1.62 µM (≈ 2.5 µg/mL)

SMILES: CC[C@H](C)[C@H](NC(=O)[C@H](CCCN=C(N)N)NC(=O)[C@H](CCCN=C(N)N)NC(=O)[C@H](Cc1ccccc1)NC(=O)[C@H](CC(C)C)NC(=O)[C@H](CCCN=C(N)N)NC(=O)[C@@H](N)CCCN=C(N)N)C(=O)N[C@@H](CC(C)C)C(=O)N[C@@H](CCCN=C(N)N)C(=O)N[C@@H](Cc1c[nH]c2ccccc12)C(=O)N[C@@H](CC(C)C)C(N)=O [RRLFRRILRWL]
- MIC [25]: 2.5 µM (≈ 3.96 µg/mL)
- MIC [3]: 1.5 µM (≈ 2.38 µg/mL)
- MIC [26]: 3 µM (≈ 4.75 µg/mL)
- MIC [27]: 3.79 µM (≈ 6 µg/mL)
- MIC [4]: 0.5 µM (≈ 0.792 µg/mL)
- MIC (Fusarium oxysporum LD21): 7.57 µM (≈ 12 µg/mL)
- MIC [28]: ≥ 100 µM
- MIC [29]: 3.79 µM (≈ 6 µg/mL)
- MIC [30]: 2 µM (≈ 3.17 µg/mL)
- MIC [31]: 1.89 µM (≈ 3 µg/mL)
- MIC [32]: 0.8 µM (≈ 1.27 µg/mL)
- MIC [33]: 0.4 µM (≈ 0.634 µg/mL)
- MIC [34]: 2 µM (≈ 3.17 µg/mL)
- MIC [9]: 0.1 µM (≈ 0.158 µg/mL)
- MIC [35]: 0.2 µM (≈ 0.317 µg/mL)
- MIC [36]: 0.3 µM (≈ 0.475 µg/mL)
- MIC [37]: 3.79 µM (≈ 6 µg/mL)
- MIC [38]: 7.57 µM (≈ 12 µg/mL)
- MIC [12]: 0.3 µM (≈ 0.475 µg/mL)
- MIC [13]: 3.79 µM (≈ 6 µg/mL)
- MIC [39]: 1.89 µM (≈ 3 µg/mL)
- MIC [40]: 4 µM (≈ 6.34 µg/mL)
- MIC [41]: 0.8 µM (≈ 1.27 µg/mL)
- MIC [42]: 3.79 µM (≈ 6 µg/mL)
- MIC [43]: 8 µM (≈ 12.7 µg/mL)
- MIC [44]: 15.8 µM (≈ 25 µg/mL)
- MIC [45]: 1 µM (≈ 1.58 µg/mL)
- MIC [46]: 1 µM (≈ 1.58 µg/mL)

SMILES: CSCC[C@H](NC(=O)[C@H](CO)NC(=O)[C@H](Cc1ccc(O)cc1)NC(=O)[C@H](CO)NC(C)=O)C(=O)N[C@@H](CCC(=O)O)C(=O)N[C@@H](Cc1cnc[nH]1)C(=O)N[C@@H](Cc1ccccc1)C(=O)N[C@@H](CCCN=C(N)N)C(=O)N[C@@H](Cc1c[nH]c2ccccc12)C(=O)NCC(=O)N[C@@H](CCCCN)C(=O)N1CCC[C@H]1C(=O)N[C@H](C(N)=O)C(C)C [SYSMEHFRWGKPV]
- MIC [47]: ≥ 100 µM
- MIC [48]: ≥ 50 µM
- MIC [49]: ≥ 100 µM
